Laboratory results as given in US20250235454A1, “XOPHOS INHIBITORS FOR USE IN THE TREATMENT OF B-CELL LYMPHOMA” (CENTRE NATIONAL DE LA RECHERCHE SCIENTIFIQUE, priority 2022, published 2025).

Experiments:
[1] = test system: human B cell lymphoma cell line (Karpas422, CVCL_1325); assay: Effect on cell growth, B cell lymphoma line Karpas422 (live cell count by flow cytometry or CellTiterFluor); assay type: cell-based; settings: 10 μM, 48 h, RPMI and HLPM medium, FIG. 2
Method: Cells from a human B cell lymphoma cell line (“Karpas422, CVCL_1325”) have been seeded at a density of 100,000 cells per well, in a 96-well plate in the presence of a 10 μM concentration of compound, in a volume of 100 μL of medium. After 48 h of treatment, analyses of the effect on cell growth have been conducted, either by counting live cells using flow cytometry (FIG. 2a), or using a biochemical fluorescence detection kit for live cells (FIG. 2b).
In conventional “Gibco RPMI1640/10°/0 SVF” medium, the number of living cells has been determined after double AnnexinV/PI labelling, and analysis using the flow cytometer known as “ATTUNE” (Thermo Fisher Scientific). In “Gibco Human Like Plasma Medium”, the number of live cells has been evaluated using the “CellTiterFluor” kit and after measurement of relative fluorescence units (RFU) according to the supplier's recommendations (Promega). The term DMSO in FIG. 2 corresponds to the control, i.e. identical medium with no added compound.

[2] = test system: human B cell lymphoma cell line (RL, CVCL_1660); assay: Effect on cell growth, B cell lymphoma line RL (live cell count by flow cytometry); assay type: cell-based; settings: 5 μM or 10 μM, 48 h, RPMI medium, FIG. 6
Method: Cells from the human B cell lymphoma cell line (“RL, CVCL_1660”), have been seeded at a density of 100,000 cells per well, in a 96-well plate in the presence of a concentration of 5 μM or 10 μM of compound, in a volume of 100 μL of RPMI medium. After 48 h of treatment, analyses of the effect on cell growth have been conducted by counting live cells using flow cytometry, as in FIG. 2a.

[3] = test system: human tumour cells of a B cell lymphoma line (SUDHL-4, CVCL_0539); assay: In ovo xenograft model on the chorioallantoic membrane (CAM) of the chicken embryo; assay type: in vivo
Excerpt: Preclinical evaluation analyses of the anti-tumour efficacy of compound (Ia) have been carried out using the xenograft model on the chorioallantoic membrane (CAM) of the chicken embryo. […] Treatments have been performed on days E11, E13, E15 and E17. At day E18, the upper CAM portions containing tumours have been removed and weighed, and the lower CAM fragments have been used to evaluate the presence of human cells indicative of metastases by RT-gPCR (polymerase chain reaction from an RNA sample). 0.0097 mg/kg Doxorubicin (DOXO) has been used as a positive control for treatment efficacy, compound (Ia) has been used at 3 different doses: 0.05 mg/kg, [2]: 0.15 mg/kg, and [3]: 0.45 mg/kg, and “IACS-010759” has been used at 2 different doses: 0.05 mg/kg, and [2]: 0.45 mg/kg. The negative control (denoted DMSO) represents treatment with the DMSO molecule diluent.

[4] = test system: 31 human B and T cell lymphoma lines; assay: AnnexinV/PI cytometry, % apoptotic cells in 31 lymphoma lines; assay type: cell-based; settings: compared with IACS-010759, FIG. 3
Excerpt: Analyses of the effect on cell growth of compound (Ia) in accordance with the invention in comparison with compound “[…]” (denoted IACS) not in accordance with the invention have been conducted on a wide series of 31 human B and T cell lymphoma lines, after AnnexinV/PI labelling and analysis with the “ATTUNE” cytometer (Thermo Fisher Scientific). In addition to the number of living cells represented in FIG. 2a, this technology enables the % of cells undergoing apoptosis to be evaluated. The results have been represented in FIG. 3 in the form of a “HeatMap” with a black and white gradient, black representing the highest % of apoptotic cells.

[5] = test system: RH30, CVCL_0041 rhabdomyosarcoma sarcoma line; assay: Effect on cell growth, paediatric sarcoma line RH30 (CellTiterFluor); assay type: cell-based, human; settings: 48 h, HLPM medium
Method: (§1) Human tumour cells from two paediatric rhabdomyosarcoma-like sarcoma lines (“RD136, CVCL_1649”, FIG. 5a and “RH3O, CVCL_0041”, FIG. 5b) have been seeded in a 96-well plate in the presence of a concentration of 10 μM of compound, in a volume of 100 μL of “Gibco Human Like Plasma Medium” (Gibco HPLM_Thermo Fisher Scientific). The effect of compounds (Ia), (Ib) and (Ic) has been compared with that of the inhibitors IACS-010759 (IACS) and IM156 (metformin analogue) currently in clinical trials, Rotenone (ROT) and the apoptosis inducer staurosporine (STS). After 48 hours of treatment, the effect on the number of living cells has been evaluated using the “CellTiterFluor” kit from Promega, identically to FIG. 2b.
Human tumour cells from the paediatric rhabdomyosarcoma sarcoma line (“RH30, CVCL_0041”) have been seeded in a 96-well plate in the presence of a 10 μM or 25 μM concentration of compound, in a 100 μL volume of “Gibco Human Like Plasma Medium” (Gibco HPLM_Thermo Fisher Scientific). After 48 h of treatment, the effect of compounds (Ia), (Ie) and (If) on cell growth has been evaluated using the Promega “CellTiterFluor” kit as in FIG. 2b.

[6] = test system: human B cell lymphoma line (RL line, CVCL_1660); assay: Seahorse analysis of oxygen consumption rate (OCR); assay type: cell-based; settings: for inhibition of OCR: RL cells; for effect on mitochondrial respiration: increasing concentrations 1.2-10 μM, compared to rotenone or IACS-010759
Method: The analyser known as “Seahorse” allows evaluation mitochondrial respiration in real time by measuring Oxygen Consumption Rate (OCR). The experiments have been carried out according to the supplier's recommendations (“Agilent_Seahorse XFe96”). To achieve this, 150,000 cells per well of a human B cell lymphoma line (“RL line, CVCL_1660”) have been seeded in 180 μL of Agilent_Seahorse XF RPMI medium (supplemented with pyruvate and glucose) on a dedicated Agilent_Seahorse 96-well plate, pre-treated with a solution of CellTak according to the supplier's recommendations (Corning). After 30 min incubation in a CO2-free oven, the plate has been analysed with the “Seahorse” using a protocol allowing injection (indicated by arrows in FIG. 1) of increasing amounts of compound to obtain a final cumulative concentration of 1.2 μM, 2.5 μM, 5 μM and 10 μM, followed each time by an OCR reading (in pmol/min) for 10 min. Data normalisation has been carried out by cell counting, using a device known as the “Cytation 1/5 Cell Imaging Multi-Mode reader” (BioTek Instruments, Inc) coupled to the “Seahorse”.
A control is used (DMSO, curve with solid squares) in each figure and corresponds to the medium studied without addition of compound (addition only of the DMSO diluent from the molecule stocks). […] In addition, injection of increasing concentrations of compounds in accordance with the invention induces progressive inhibition of OCR, in a similar manner and in stages for compounds (Ib) and (Ic), and progressively for compound (Ia).

[7] = test system: human B cell lymphoma cell line (Karpas422, CVCL_1325); assay: IC50 on cell growth, Karpas422 (CellTiter-Fluor Cell Viability Assay); assay type: cell-based; settings: KARPAS-422, Karpas422, RPMI 1640 (11 mM glucose) with 10% serum, 48 h
Method: These experiments have been performed using cells from a human B cell lymphoma cell line (“Karpas422, CVCL_1325”) which have been seeded in “RPMI 1640” medium (11 mM glucose) supplemented with 10% serum, in the presence of increasing concentrations of compounds.
After 48 h of treatment, analyses of the effect on cell growth have been conducted, using the “CellTiter-Fluor Cell Viability Assay” (Promega) live cell detection kit, as in FIG. 2b, and following the supplier's instructions.

[8] = test system: RD136, CVCL_1649 rhabdomyosarcoma-like sarcoma line; assay: Effect on cell growth, paediatric sarcoma line RD136 (CellTiterFluor); assay type: cell-based, human; settings: 10 μM, 48 h, HLPM medium, FIG. 5a
Method: as §1

[9] = dose 0.15 mg/kg (compound Ia [2])
[10] = dose 0.45 mg/kg (compound Ia [3], IACS [2])
[11] = 10 μM cumulative concentration, FIG. 1b

c1cnc(NCCCCCCCCCCCCNC2=NCCN2)nc1 [Compound Ia, N′-(4,5-dihydro-1H-imidazol-2-yl)-N-pyrimidin-2-yl-dodecane-1,12-diamine]
effect on cell growth (number of live tumour cells) [1]: inhibit cell growth | effect on cell growth [2]: inhibitory effect on cell growth | reduction in primary tumour volume [3, 9]: 73% | reduction in the relative number of metastases [3, 9]: 70% | reduction in primary tumour volume [3, 10]: 70% | reduction in the relative number of metastases [3, 10]: 72% | reduction in primary tumour volume ([3]; dose [1] 0.05 mg/kg): 48% | reduction in the relative number of metastases ([3]; dose [1] 0.05 mg/kg): 45% | toxicity (% of apoptotic cells) [4]: increased with respect to that of “IACS-010759” for a sub-group of 8 lines | effect on cell growth (number of living cells) ([5]; 10 μM or 25 μM, FIG. 7): inhibit cell growth | inhibition of OCR [6, 11]: Virtually complete inhibition of OCR | effect on mitochondrial respiration [6]: moderate and progressive effect | IC50 [7]: 1.5 µM

Cl.Cl.c1cnc(N2CCN(CCCCCCCCCCCCN3CCN(c4ncccn4)CC3)CC2)nc1 [Compound Ib, 2-[4-[12-(4-pyrimidin-2-ylpiperazin-1-yl)dodecyl]piperazin-1-yl]pyrimidine dihydrochloride]
effect on cell growth (number of living cells) [8]: inhibits cell growth | effect on cell growth (number of live tumour cells) [1]: inhibit cell growth | effect on cell growth (number of living cells) ([5]; 10 μM, FIG. 5b): inhibits cell growth | inhibition of OCR [6, 11]: Virtually complete inhibition of OCR | effect on mitochondrial respiration [6]: moderate and progressive effect

Cl.Cl.c1ccc(N2CCN(CCCCCCCCCCCCN3CCN(c4ccccn4)CC3)CC2)nc1 [Compound Ic, 1-(2-pyridyl)-4-[12-[4-(2-pyridyl)piperazin-1-yl]dodecyl]piperazine dihydrochloride]
effect on cell growth (number of living cells) [8]: inhibits cell growth | effect on cell growth (number of live tumour cells) [1]: inhibit cell growth | effect on cell growth (number of living cells) ([5]; 10 μM, FIG. 5b): inhibits cell growth | inhibition of OCR [6, 11]: Virtually complete inhibition of OCR | effect on mitochondrial respiration [6]: moderate and progressive effect

c1cnc(NCCCCCCCCCCCCNc2ncccn2)nc1 [Compound Id]
effect on cell growth (number of living cells) [8]: inhibits cell growth | effect on cell growth [2]: inhibitory effect on cell growth | effect on cell growth (number of living cells) ([5]; 10 μM, FIG. 5b): inhibits cell growth

c1cnc(N2CCN(CCCCCCCN3CCN(c4ncccn4)CC3)CC2)nc1 [Compound Ie]
effect on cell growth (number of living cells) ([5]; 10 μM or 25 μM, FIG. 7): inhibit cell growth

Cl.Cl.c1ccc(N2CCN(CCCCCCCN3CCN(c4ccccn4)CC3)CC2)nc1 [Compound If]
effect on cell growth (number of living cells) ([5]; 10 μM or 25 μM, FIG. 7): inhibit cell growth

C=C(C)[C@H]1Cc2c(ccc3c2O[C@@H]2COc4cc(OC)c(OC)cc4[C@@H]2C3=O)O1 [Rotenone, reference compound]
inhibition of OCR ([6]; 1.2 μM, FIG. 1a): instantaneous and almost complete inhibition of OCR

COc1cccc2c1C(=O)c1c(O)c3c(c(O)c1C2=O)C[C@@](O)(C(=O)CO)C[C@@H]3O[C@H]1C[C@H](N)[C@H](O)[C@H](C)O1 [doxorubicin, Doxorubicin, reference compound]
regression in the number of metastases ([3]; 0.0097 mg/kg, lower CAM, RT-qPCR): 99% | reduction in primary tumour volume ([3]; 0.0097 mg/kg, treatments E11, E13, E15, E17, read at E18): 90%

N/C(=N/c1cccc2ccccc12)SCCCCCCS/C(N)=N\c1cccc2ccccc12 [reference compound]
IC50 [7]: 15.1 µM
